Laboratory results as given in BindingDB's records for doi:10.1021/jm950655o (University of Arizona, 1996).
pIC50: −log10 of the molar value.

Target: Delta-type opioid receptor (Cavia porcellus)
Test: Inhibition of binding [3H]cyclo[D-Pen2,p-Cl,-Phe4,D-Pen5] enkephalin to Opioid receptor delta 1 of guinea pig brain membrane (GPB) homogenates.

**Q.** `CC[C@H](C)[C@H](NC(=O)[C@H](CCCN=C(N)N)NC(=O)[C@H](CCCN=C(N)N)NC(=O)[C@H](CC(C)C)NC(=O)[C@H](Cc1ccccc1)NC(=O)[C@H](Cc1ccc(O)cc1)NC(=O)CNC(=O)[C@@H](N)Cc1ccc(O)cc1)C(=O)N[C@@H](CCCN=C(N)N)C(=O)N1CCC[C@H]1C(=O)N[C@@H](CCCCN)C(N)=O` was tested. Which pIC50 did it give?
**A.** The pIC50 was < 5.00.
